Laboratory results reported in US9132109B2, “Use of non-steroidal anti-inflammatory drugs by inhalation in the treatment of acute and chronic bronchitis” (MEDESTEA RESEARCH & PRODUCTION S.P.A., priority 2005, dated 2015).
Read-outs that look alike come from different tables or passages of the source.

Experiments:
[1] = test system: bronchitic patients; experiment: Pulmonary function and pro-inflammatory parameters in bronchitic patients after nebulised drug; type: in vivo, human; details: aspirin by nebuliser
Procedure: The study involved 4 patients with a diagnosis of COPD according to the ATS/ERS guidelines (B R Celli et al. Eur. Respir. J. 2004; 23: 932-46), who were smokers or former smokers (≧20 packets a year). The patients were instructed in the use of a peak expiratory flow (PEF) measuring device using a peak flowmeter, and asked to record the PEF measurements in a daily diary. The measurements were performed 3 times a day: immediately after getting up in the morning, before lunch, and at night before going to bed. […] The patients were suitably instructed as to how to perform the PEF measurements, and asked to record the various measurements and any symptoms, whether correlated with the disease or not, in a daily diary. Before beginning treatment with 900 mg lysine acetylsalicylate (equivalent to 500 mg of acetylsalicylic acid) twice a day, morning and evening, administered after measurement of the corresponding PEF, the patients discontinued all pharmacological treatment except for short-acting bronchodilators in accordance with the ATS/ERS guidelines (B R Celli et al. Eur. Respir. J. 2004; 932-46) as first-line of treatment. This basic treatment was continued for 15 days, during which the PEF values were recorded; their mean value was considered as the baseline value. […]

[2] = test system: asthma patients; details: by inhalation, Sestini P. et al. 1999; cited from earlier work
[3] = test system: bronchitic patients; details: cited from earlier work
[4] = test system: bronchitic patients; details: indomethacin inhaler; Tamaoki et al.; cited from earlier work
[5] = test system: patients with a diagnosis of COPD; experiment: Peak expiratory flow (PEF) in COPD patients treated by inhalation; type: in vivo, human; details: 900 mg lysine acetylsalicylate (equivalent to 500 mg acetylsalicylic acid) twice a day by inhalation, 30 days, vs 15-day baseline; two patients; similar at all 3 daily measurements
Procedure: The study involved 4 patients with a diagnosis of COPD according to the ATS/ERS guidelines (B R Celli et al. Eur. Respir. J. 2004; 23: 932-46), who were smokers or former smokers (≧20 packets a year). The patients were instructed in the use of a peak expiratory flow (PEF) measuring device using a peak flowmeter, and asked to record the PEF measurements in a daily diary. The measurements were performed 3 times a day: immediately after getting up in the morning, before lunch, and at night before going to bed. At least 3 daily PEF measurements are considered a good method for the measurement of pulmonary function (C A. Holcroft et al., Chest, 2003; 124: 501-10). PEF measurement has also been used, together with other spirometric tests, to evaluate potential COPD drugs (N A. Hanania et al., Chest, 2003; 124: 834-43). The patients were suitably instructed as to how to perform the PEF measurements, and asked to record the various measurements and any symptoms, whether correlated with the disease or not, in a daily diary. […] This basic treatment was continued for 15 days, during which the PEF values were recorded; their mean value was considered as the baseline value. […]

For `CC(=O)Oc1ccccc1C(=O)O` [aspirin, acetylsalicylic acid], the pulmonary function [1] is listed as “definite improvement”, the pulmonary pro-inflammatory parameters [1] is listed as “reduction” and the immediate allergen-induced bronchoconstriction [2] is listed as “inhibited”. The sputum volume ([3]; aspirin by inhalation, Inoue H et al. 1991) was “reduces the sputum volume”.
In the case of `COc1ccc2c(c1)c(CC(=O)O)c(C)n2C(=O)c1ccc(Cl)cc1` [indomethacin], the immediate allergen-induced bronchoconstriction [2] is given as “ineffective”, the sputum volume ([3]; indomethacin inhaler, Tamaoki J. et al. 1992) is given as “reduction in sputum volume” and the “variation in respiratory function (FEV1)” value [4] is given as “did not observe any significant variation”.
For `CC(=O)Oc1ccccc1C(=O)O` [lysine acetylsalicylate], the “mean increase in PEF” value [5] was 8 to 10 L/min.
